Data reported in patent publication US10933059B2, “Combination, application thereof and treatment method” (KANGPU BIOPHARMACEUTICALS, LTD., priority 2016, dated 2021).

Experiments:
Assay type in all cases: cell-based
PSA (Prostate antigen) = test: PSA inhibition rate experiment (PSA secretion in supernatant of VCap cells); details: Homo sapiens, 120 h
Description: Cells were collected in exponential growth phase for viable cell count. The cell suspension was adjusted to 4.17×10E4/ml with the medium mentioned above. 120 μl of cell suspension was added to each well of a 96-well cell culture plateat, a final concentration of cells was 5000 cells/well. The cells were incubated overnight in a 37° C., 5% CO2 incubator.
10 mM stocking solution was prepared by dissolving each tested compound in DMSO. […] The final concentration of DMSO per well was 0.2%. The cells were incubated for 5 days in a 37° C., 5% CO2 incubator.
After 5 days' drug treatment, the cell supernatant of each well was collected, and centrifuged at 2000 r/min for 5 minutes, then transferred to a clean EP tube for PSA detection.
Wherein, Vsample is the PSA reading of the drug treatment group, and VDMSO is the average value of PSA of the solvent control group.

LNCap cells = test: CTG cell proliferation assay on LNCap cells (method of Effect embodiment 1)
Vcap cells = test: CTG cell proliferation assay on Vcap cells (compounds alone or in combination, 5 days); details: for viability at 0.1 µM / viability at 1 µM / viability at 10 µM: Homo sapiens, VCaP, 120 h, read-out: Survival rate of Vcap cells; for Vcap cell proliferation inhibition rate: 5 days
Description: In vitro test of the inhibition effect of the compound in combination with androgen receptor pathway modulators on the prostate cancer cell proliferation.
Inhibition effect of the compounds such as B101, B102, B103, B104, B105, B106, C111 and the like, androgen receptor pathway modulators, hormone compounds, alone or in combination with each other on the prostate cancer cell proliferation were tested on Vcap cells (androgen receptor (+) prostate cancer cells) (ATCC, catalogue number CRL-2876). The specific experimental operation was as follows: 5×10^3 Vcap cells per well were inoculated into 96-well plates with transparent bottom and white wall (Corning, catalogue number CLS3903) containing the specific medium, and were cultured in a 37° C., 5% CO2 incubator for 24 hours. The tested compounds and the androgen receptor pathway modulators were prepared to a 150 mM stocking solution with DMSO (Sigma, catalogue number 276855), diluted with culture medium to the desired concentrations (the final concentration of DMSO is 0.2%), and then added to each well, 2 wells/concentration, followed by being incubated in a 37° C., 5% CO2 incubator for 5 days. The tested compounds were used alone or in combination with other androgen receptor pathway modulators and/or hormone compounds respectively. […] After that, 100 μl of CellTiter-Glo® cell viability assay reagent (Promega, catalogue number G7570) was added to each well and mixed well on a vibrator for 10 minutes to induce cell lysis. The 96-well plate was placed at room temperature for 10 minutes, so as to stabilize its luminescence signal. A white bottom membrane was pasted on the bottom of the plate and the plate was tested using EnSpire.

[1] = tested compound 0.1 μM in combination with 1 μM ARN-509
[2] = tested compound 0.1 μM in combination with 1 μM Abiraterone acetate
[3] = tested compound 0.1 μM in combination with 1 μM Enzalutamide
[4] = tested compound 0.1 μM in combination with 1 μM Galeterone
[5] = tested compound 0.1 μM in combination with 1 μM ODM-201
[6] = tested compound 1 μM in combination with 1 μM ARN-509
[7] = tested compound 1 μM in combination with 1 μM Abiraterone acetate
[8] = tested compound 1 μM in combination with 1 μM Enzalutamide
[9] = tested compound 1 μM in combination with 1 μM Galeterone
[10] = tested compound 1 μM in combination with 1 μM ODM-201
[11] = tested compound 10 μM in combination with 1 μM ARN-509
[12] = tested compound 10 μM in combination with 1 μM Abiraterone acetate
[13] = tested compound 10 μM in combination with 1 μM Enzalutamide
[14] = tested compound 10 μM in combination with 1 μM Galeterone
[15] = tested compound 10 μM in combination with 1 μM ODM-201
[16] = tested compound 0.1 μM in combination with 1 μM B101
[17] = tested compound 0.1 μM in combination with 1 μM B105
[18] = tested compound 1 μM in combination with 1 μM B101
[19] = tested compound 1 μM in combination with 1 μM B105
[20] = tested compound 10 μM in combination with 1 μM B101
[21] = tested compound 10 μM in combination with 1 μM B105

## CNC(=O)c1ccc(N2C(=S)N(c3ccc(C#N)c(C(F)(F)F)c3)C(=O)C2(C)C)cc1F [Enzalutamide, reference compound]
PSA (Prostate antigen)
  inhibition at 0.5 µM: 30.7%
LNCap cells; tested compound alone, 0.1 μM
  Survival rate of LNCap cells: 101.5%
LNCap cells; tested compound alone, 1 μM
  Survival rate of LNCap cells: 70.5%
LNCap cells; tested compound alone, 1 μM, listed as enzalutamide
  Survival rate of LNCap cells: 70.5%
LNCap cells; tested compound alone, 10 μM
  Survival rate of LNCap cells: 59.3%

## C[C@]12CC[C@H](O)CC1=CC[C@@H]1[C@@H]2CC[C@]2(C)C(n3cnc4ccccc43)=CC[C@@H]12 [Galeterone, reference compound]
Vcap cells; tested compound alone
  viability at 0.1 µM: 95.9%
  viability at 10 µM: 19.3%
Vcap cells; tested compound alone, 1 μM
  viability at 1 µM: 62.8%
  Survival rate of Vcap cells: 62.8%
LNCap cells; tested compound alone, 0.1 μM
  Survival rate of LNCap cells: 104.9%
LNCap cells; tested compound alone, 1 μM
  Survival rate of LNCap cells: 79%
LNCap cells; tested compound alone, 10 μM
  Survival rate of LNCap cells: 24.2%

## Nc1cc(F)cc2c1CN(C1CCC(=O)NC1=O)C2=O (stereo not shown) [B101]
Vcap cells; tested compound alone
  viability at 0.1 µM: 77.7%
  viability at 10 µM: 64.7%
Vcap cells; tested compound alone, 1 μM
  viability at 1 µM: 65.4%
Vcap cells; [1]
  Survival rate of Vcap cells: 29.3%
Vcap cells; [2]
  Survival rate of Vcap cells: 61.8%
Vcap cells; [3]
  Survival rate of Vcap cells: 30.6%
Vcap cells; [4]
  Survival rate of Vcap cells: 38.6%
Vcap cells; [5]
  Survival rate of Vcap cells: 43.8%
Vcap cells; [6]
  Survival rate of Vcap cells: 24.3%
Vcap cells; [7]
  Survival rate of Vcap cells: 56.6%
Vcap cells; [8]
  Survival rate of Vcap cells: 25.2%
Vcap cells; [9]
  Survival rate of Vcap cells: 34.4%
Vcap cells; [10]
  Survival rate of Vcap cells: 37.1%
Vcap cells; [11]
  Survival rate of Vcap cells: 24.5%
Vcap cells; [12]
  Survival rate of Vcap cells: 52.9%
Vcap cells; [13]
  Survival rate of Vcap cells: 24.4%
Vcap cells; [14]
  Survival rate of Vcap cells: 32.5%
Vcap cells; [15]
  Survival rate of Vcap cells: 32.5%
LNCap cells; [1]
  Survival rate of LNCap cells: 86.7%
LNCap cells; [2]
  Survival rate of LNCap cells: 82.4%
LNCap cells; [3]
  Survival rate of LNCap cells: 59.3%
LNCap cells; [4]
  Survival rate of LNCap cells: 76.3%
LNCap cells; [6]
  Survival rate of LNCap cells: 46.3%
LNCap cells; [7]
  Survival rate of LNCap cells: 46.2%
LNCap cells; [8]
  Survival rate of LNCap cells: 34.1%
LNCap cells; [9]
  Survival rate of LNCap cells: 43.6%
LNCap cells; [11]
  Survival rate of LNCap cells: 32.4%
LNCap cells; [12]
  Survival rate of LNCap cells: 33.2%
LNCap cells; [13]
  Survival rate of LNCap cells: 27.1%
LNCap cells; [14]
  Survival rate of LNCap cells: 31.4%
LNCap cells; tested compound alone, 0.1 μM
  Survival rate of LNCap cells: 99.6%
LNCap cells; tested compound alone, 1 μM
  Survival rate of LNCap cells: 63%
LNCap cells; tested compound alone, 10 μM
  Survival rate of LNCap cells: 42.4%

## [2H][C@]1(N2Cc3c(N)cc(F)cc3C2=O)CCC(=O)NC1=O [B105]
Vcap cells; B105 or C111 0.05 μM alone
  Vcap cell proliferation inhibition rate: 17.4%
Vcap cells; B105 or C111 0.14 μM alone
  Vcap cell proliferation inhibition rate: 23.9%
Vcap cells; B105 or C111 1.23 μM alone
  Vcap cell proliferation inhibition rate: 26.3%
Vcap cells; B105 or C111 3.70 μM alone
  Vcap cell proliferation inhibition rate: 25.9%
Vcap cells; B105 or C111 11.11 μM alone
  Vcap cell proliferation inhibition rate: 27.0%
Vcap cells; B105 or C111 33.33 μM alone
  Vcap cell proliferation inhibition rate: 27.4%
Vcap cells; B105 or C111 100.00 μM alone
  Vcap cell proliferation inhibition rate: 25.1%
Vcap cells; B105 or C111 300.00 μM alone
  Vcap cell proliferation inhibition rate: 22.8%
Vcap cells; tested compound alone
  viability at 0.1 µM: 83.3%
  viability at 10 µM: 72.7%
Vcap cells; tested compound alone, 1 μM
  viability at 1 µM: 72.5%
Vcap cells; [1]
  Survival rate of Vcap cells: 30.6%
Vcap cells; [2]
  Survival rate of Vcap cells: 65.0%
Vcap cells; [3]
  Survival rate of Vcap cells: 31.6%
Vcap cells; [4]
  Survival rate of Vcap cells: 40.9%
Vcap cells; [5]
  Survival rate of Vcap cells: 43.3%
Vcap cells; [6]
  Survival rate of Vcap cells: 28.0%
Vcap cells; [7]
  Survival rate of Vcap cells: 57.1%
Vcap cells; [8]
  Survival rate of Vcap cells: 27.5%
Vcap cells; [9]
  Survival rate of Vcap cells: 36.7%
Vcap cells; [10]
  Survival rate of Vcap cells: 36.6%
Vcap cells; [11]
  Survival rate of Vcap cells: 27.0%
Vcap cells; [12]
  Survival rate of Vcap cells: 58.0%
Vcap cells; [13]
  Survival rate of Vcap cells: 27.5%
Vcap cells; [14]
  Survival rate of Vcap cells: 36.3%
Vcap cells; [15]
  Survival rate of Vcap cells: 32.2%
LNCap cells; [1]
  Survival rate of LNCap cells: 82.6%
LNCap cells; [2]
  Survival rate of LNCap cells: 83.7%
LNCap cells; [3]
  Survival rate of LNCap cells: 57.5%
LNCap cells; [4]
  Survival rate of LNCap cells: 73.4%
LNCap cells; [6]
  Survival rate of LNCap cells: 44.7%
LNCap cells; [7]
  Survival rate of LNCap cells: 47.9%
LNCap cells; [8]
  Survival rate of LNCap cells: 32%
LNCap cells; [9]
  Survival rate of LNCap cells: 40.6%
LNCap cells; [11]
  Survival rate of LNCap cells: 32.4%
LNCap cells; [12]
  Survival rate of LNCap cells: 31.7%
LNCap cells; [13]
  Survival rate of LNCap cells: 25.8%
LNCap cells; [14]
  Survival rate of LNCap cells: 30.6%
LNCap cells; tested compound alone, 0.1 μM
  Survival rate of LNCap cells: 102.9%
LNCap cells; tested compound alone, 1 μM
  Survival rate of LNCap cells: 61.5%
LNCap cells; tested compound alone, 10 μM
  Survival rate of LNCap cells: 40.8%

## CNC(=O)c1ccc(N2C(=S)N(c3cnc(C#N)c(C(F)(F)F)c3)C(=O)C23CCC3)cc1F [ARN-509, reference compound]
Vcap cells; [16]
  Survival rate of Vcap cells: 42.7%
Vcap cells; [17]
  Survival rate of Vcap cells: 45.3%
Vcap cells; [18]
  Survival rate of Vcap cells: 39.2%
Vcap cells; [19]
  Survival rate of Vcap cells: 38.6%
Vcap cells; [20]
  Survival rate of Vcap cells: 38.4%
Vcap cells; [21]
  Survival rate of Vcap cells: 38.0%
LNCap cells; tested compound alone, 0.1 μM
  Survival rate of LNCap cells: 105.2%
LNCap cells; tested compound alone, 1 μM
  Survival rate of LNCap cells: 86.7%
LNCap cells; tested compound alone, 10 μM
  Survival rate of LNCap cells: 60.2%

## CC(=O)O[C@H]1CC[C@@]2(C)C(=CC[C@@H]3[C@@H]2CC[C@]2(C)C(c4cccnc4)=CC[C@@H]32)C1 [Abiraterone acetate, reference compound]
Vcap cells; tested compound alone
  viability at 0.1 µM: 106%
Vcap cells; tested compound alone, 1 μM
  viability at 1 µM: 91.7%
Vcap cells; [16]
  Survival rate of Vcap cells: 72.2%
Vcap cells; [17]
  Survival rate of Vcap cells: 77.3%
Vcap cells; [18]
  Survival rate of Vcap cells: 70.5%
Vcap cells; [19]
  Survival rate of Vcap cells: 70.7%
Vcap cells; [20]
  Survival rate of Vcap cells: 66.7%
Vcap cells; [21]
  Survival rate of Vcap cells: 69.2%
LNCap cells; tested compound alone, 0.1 μM
  Survival rate of LNCap cells: 109.2%
LNCap cells; tested compound alone, 1 μM
  Survival rate of LNCap cells: 90.7%
LNCap cells; tested compound alone, 10 μM
  Survival rate of LNCap cells: 45.2%
